Data taken from ChEMBL document CHEMBL3407363, “Vitamin D3 analogues that contain modified A- and seco-B-rings as hedgehog pathway inhibitors” (Eur J Med Chem, 2015).

Columns and labels:
[1] = Inhibition of hedgehog signaling in mouse C3H10T1/2 cells assessed as reduction in Gli1 mRNA level at 5 uM after 24 hrs by quantitative PCR analysis relative to control; format: cell-based; settings: C3H 10T1/2, values are per cent of control
Vitamin D3 receptor [2] = target: T1, Vitamin D3 receptor (Mus musculus, UniProt P48281); assay: Activation of VDR in mouse ASZ cells assessed as up-regulation of Cyp24A1 mRNA at 5 uM after 24 hrs by quantitative PCR analysis relative to control; format: ADME, cell-based
T1 sequence (P48281 whole entry): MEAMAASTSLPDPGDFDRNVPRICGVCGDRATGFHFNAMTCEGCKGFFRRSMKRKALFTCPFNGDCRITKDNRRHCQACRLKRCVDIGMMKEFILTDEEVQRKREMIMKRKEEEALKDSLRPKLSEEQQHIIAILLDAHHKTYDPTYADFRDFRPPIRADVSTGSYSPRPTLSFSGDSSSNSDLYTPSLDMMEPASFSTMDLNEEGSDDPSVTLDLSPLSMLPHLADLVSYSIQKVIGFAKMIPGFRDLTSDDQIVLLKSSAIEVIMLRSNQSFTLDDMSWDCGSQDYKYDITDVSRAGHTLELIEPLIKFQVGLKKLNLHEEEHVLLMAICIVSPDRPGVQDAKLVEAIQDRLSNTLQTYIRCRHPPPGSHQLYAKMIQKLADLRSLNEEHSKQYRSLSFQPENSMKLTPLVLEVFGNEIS

[3] = Inhibition of hedgehog signaling in mouse C3H10T1/2 cells assessed as reduction in Gli1 mRNA level after 24 hrs by quantitative PCR analysis; format: cell-based; settings: for inhibition: C3H 10T1/2; for IC50: C3H 10T1/2, 24 h
[4] = target: T2, Vitamin D3 receptor (Homo sapiens) (UniProt P11473); assay: Binding affinity to full length human VDR by fluorescent displacement assay
T2 sequence (whole entry): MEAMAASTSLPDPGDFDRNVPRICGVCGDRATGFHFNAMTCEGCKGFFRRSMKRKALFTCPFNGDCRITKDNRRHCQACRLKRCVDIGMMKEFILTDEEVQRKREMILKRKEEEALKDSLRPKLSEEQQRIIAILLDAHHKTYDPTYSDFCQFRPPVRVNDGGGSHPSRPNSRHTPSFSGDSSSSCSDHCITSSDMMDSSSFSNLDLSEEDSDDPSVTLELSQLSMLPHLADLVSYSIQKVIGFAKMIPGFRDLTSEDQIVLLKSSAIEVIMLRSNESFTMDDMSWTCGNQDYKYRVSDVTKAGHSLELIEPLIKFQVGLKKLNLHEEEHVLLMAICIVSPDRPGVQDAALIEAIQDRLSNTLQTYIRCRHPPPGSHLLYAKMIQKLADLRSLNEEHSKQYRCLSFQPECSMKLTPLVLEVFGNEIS

Vitamin D3 receptor [5] = target: T1, Vitamin D3 receptor; assay: Activation of VDR in mouse ASZ cells assessed as up-regulation of Cyp24A1 mRNA at 2.5 uM after 24 hrs by quantitative PCR analysis relative to control; format: ADME, cell-based

Compound	response, % of control [1] [%]	Activity (Vitamin D3 receptor [2]) [%]	inhibition [3]	IC50 [3] [µM]	K [4] [µM]	Activity (Vitamin D3 receptor [5]) [%]
CC(C)CCC[C@@H](C)[C@H]1CC[C@H]2/C(=C/C(=O)Nc3ccccc3)CCC[C@]12C	41.7					
CC(C)CCC[C@@H](C)[C@H]1CC[C@H]2[C@@H](OC(=O)/C=C/c3ccc(O)cc3)CCC[C@]12C	62.1					
CC(C)CCC[C@@H](C)[C@H]1CC[C@H]2[C@H](O)CCC[C@]12C	74					
CC(C)CCC[C@@H](C)[C@H]1CC[C@H]2[C@@H](Nc3ccccc3O)CCC[C@]12C	2	4.4	Dose-dependent effect	1.2	> 100	
CC(C)CCC[C@@H](C)[C@H]1CC=C2[C@H](O)CCC[C@@]21C	90.1					
CC(C)CCC[C@@H](C)[C@H]1CC[C@H]2[C@@H](OC(=O)/C=C/c3ccccc3O)CCC[C@]12C	94.2					
CC(C)CCC[C@@H](C)[C@H]1CC[C@H]2[C@@H](OC(=O)Cc3cccc(O)c3)CCC[C@]12C	1.8	3.5	Dose-dependent effect	0.79	> 100	
CC(C)CCC[C@@H](C)[C@H]1CC[C@H]2[C@@H](Nc3cccc(O)c3)CCC[C@]12C	11.6	1.8	Dose-dependent effect	1	> 100	
CC(C)CCC[C@@H](C)[C@H]1CC[C@H]2[C@@H](OC(=O)CCc3ccc(O)cc3)CCC[C@]12C	20.1					
CC(C)CCC[C@@H](C)[C@H]1CC[C@H]2[C@H](c3cccc(O)c3)CCC[C@]12C	47.9					
CC(C)CCC[C@@H](C)[C@H]1CC[C@H]2[C@@H](OC(=O)CCc3ccccc3O)CCC[C@]12C	47.4					
CC(C)CCC[C@@H](C)[C@H]1CC[C@H]2[C@@H](NC(=O)c3cccc(O)c3)CCC[C@]12C	2.5	1.8	Dose-dependent effect	0.98	> 100	
CC(C)CCC[C@@H](C)[C@H]1CC[C@H]2[C@@H](OC(=O)c3cccc(O)c3)CCC[C@]12C	1.9	1.9	Dose-dependent effect	0.74	> 100	
CC(C)CCC[C@@H](C)[C@H]1CC[C@H]2/C(=C/C(=O)Nc3cccc(O)c3)CCC[C@]12C	12.1	4.5	Dose-dependent effect	1	> 100	
CC(C)CCC[C@@H](C)[C@H]1CC[C@H]2/C(=N/O)CCC[C@]12C	86.1					
CC(C)CCC[C@@H](C)[C@H]1CC[C@H]2[C@H](CCO)CCC[C@]12C	2.8	1.3	Dose-dependent effect	2.4	> 100	
CC(C)CCC[C@@H](C)[C@H]1CC[C@H]2C(c3cccc(O)c3)=CCC[C@]12C	37.2					

Compound	response, % of control [1] [%]	Activity (Vitamin D3 receptor [2]) [%]	inhibition [3]	IC50 [3] [µM]	K [4] [µM]	Activity (Vitamin D3 receptor [5]) [%]
C=C1CC[C@H](O)C/C1=C/C=C1\CCC[C@]2(C)[C@@H]([C@H](C)CCCC(C)C)CC[C@@H]12 [CHOLECALCIFEROL]	35.7		Dose-dependent effect	4.1	> 100	764
CC(C)CCC[C@@H](C)[C@H]1CC[C@@H]2[C@@H](O)CCC[C@]12C	48.7					
CC(C)CCC[C@@H](C)[C@H]1CC[C@H]2[C@@H](OC(=O)/C=C/c3cccc(O)c3)CCC[C@]12C	57.2					
CC(C)CCC[C@@H](C)[C@H]1CC[C@H]2/C(=C/C(=O)Nc3ccc(O)cc3)CCC[C@]12C	1.8	4.4	Dose-dependent effect	1.2	> 100	
CC(C)CCC[C@@H](C)[C@H]1CC[C@H]2[C@@H](O)CCC[C@]12C	46.4					
CC(C)CCC[C@@H](C)[C@H]1CC[C@H]2[C@H](C(=O)c3cccc(O)c3)CCC[C@]12C	11	7.8	Dose-dependent effect	1.8	> 100	
CC(C)CCC[C@@H](C)[C@H]1CC[C@H]2[C@H](CO)CCC[C@]12C	55.1					
CC(C)CCC[C@@H](C)[C@H]1CC[C@H]2[C@@H](OC(=O)CCc3cccc(O)c3)CCC[C@]12C	15.3	7.6	Dose-dependent effect	2.6	> 100	
CCOC(=O)/C=C1\CCC[C@]2(C)[C@@H]([C@H](C)CCCC(C)C)CC[C@@H]12	107					
CC(C)CCC[C@@H](C)[C@H]1CC[C@H]2/C(=C/CO)CCC[C@]12C	15.1					
CC(C)CCC[C@@H](C)[C@H]1CC[C@H]2C(=O)CCC[C@]12C	66.1					
CC(C)CCC[C@@H](C)[C@H]1CC[C@@H]2[C@]1(C)CCC[C@@]2(O)c1cccc(O)c1	39.5					
CC(C)CCC[C@@H](C)[C@H]1CC[C@H]2/C(=C/C(=O)Nc3ccccc3O)CCC[C@]12C	1.1	14	Dose-dependent effect	1.5	> 100	
CC(C)CCC[C@@H](C)[C@H]1CC=C2C(=O)CCC[C@@]21C	63.4					
CC(C)CCC[C@@H](C)[C@H]1CC[C@H]2[C@@H](Nc3ccc(O)cc3)CCC[C@]12C	0.7	2.7	Dose-dependent effect	0.4	> 100	
CC(C)CCC[C@@H](C)[C@H]1CC[C@H]2[C@H](OC(=O)c3cccc(O)c3)CCC[C@]12C	30.6	1.6	Dose-dependent effect	3.9	> 100	
CC(C)CCC[C@@H](C)[C@H]1CC[C@H]2[C@H](Nc3ccc(O)cc3)CCC[C@]12C	1.3	3	Dose-dependent effect	0.32	> 100	
